Columns and labels:
Type in all cases: functional
Pseudomonas aeruginosa [1] = test: Antimicrobial activity against Pseudomonas PS18 strain
[2] = tested on: Staphylococcus epidermidis; test: In vitro antimicrobial activity against Staphylococcus epidermidis 222 strain
Streptococcus pneumoniae = test: In vitro antimicrobial activity against Streptococcus pneumoniae PARK strain
Staphylococcus aureus [3] = test: In vitro antimicrobial activity against Staphylococcus aureus X1.1 strain
Staphylococcus aureus [4] = test: In vitro antimicrobial activity against Staphylococcus aureus S13E strain
Staphylococcus aureus [5] = test: In vitro antimicrobial activity against Staphylococcus aureus X400 strain
Haemophilus influenzae = test: In vitro antimicrobial activity against Haemophilus influenzae C.L. strain
[6] = tested on: Staphylococcus epidermidis; test: In vitro antimicrobial activity against Staphylococcus epidermidis 270 strain
Enterobacter cloacae = test: In vitro evaluation of antimicrobial activity against Enterobacter cloacae EB5 strain
Pseudomonas aeruginosa [7] = test: In vitro antimicrobial activity against Pseudomonas X239 strain
Escherichia coli = test: In vitro evaluation of antimicrobial activity against Escherichia coli EC14 strain
Klebsiella = test: In vitro antimicrobial activity against Klebsiella X26 strain

| Compound | MIC (Pseudomonas aeruginosa [1]) [µg/mL] | MIC [2] [µg/mL] | MIC (Streptococcus pneumoniae) [µg/mL] | MIC (Staphylococcus aureus [3]) [µg/mL] | MIC (Staphylococcus aureus [4]) [µg/mL] | MIC (Staphylococcus aureus [5]) [µg/mL] | MIC (Haemophilus influenzae) [µg/mL] | MIC [6] [µg/mL] | MIC (Enterobacter cloacae) [µg/mL] | MIC (Pseudomonas aeruginosa [7]) [µg/mL] | MIC (Escherichia coli) [µg/mL] | MIC (Klebsiella) [µg/mL] |
| --- | --- | --- | --- | --- | --- | --- | --- | --- | --- | --- | --- | --- |
| Nc1nc(/C(=N\OCCF)C(=O)N[C@@H]2C(=O)N3C(C(=O)[O-])=C(Sc4nccnc4N)CC[C@H]23)cs1.[Na+] | 16 | 1 | < 0.008 | 0.5 | 32 | > 128 | 0.015 | 4 | 1 | 128 | 0.125 | 0.015 |
| Nc1nc(/C(=N\OCCF)C(=O)N[C@@H]2C(=O)N3C(C(=O)[O-])=C(Sc4nc5cncnc5s4)CC[C@H]23)cs1.[Na+] | 128 | 0.5 | < 0.008 | 0.125 | 8 | 16 | 0.03 | 2 | 2 | 128 | 0.25 | 0.03 |
| CCOc1ccc2nc(SC3=C(C(=O)[O-])N4C(=O)[C@@H](NC(=O)/C(=N/OCCF)c5csc(N)n5)[C@H]4CC3)sc2c1.[Na+] | 128 | 1 | < 0.008 | 0.25 | 8 | 8 | 0.125 | 0.5 | 4 | > 128 | 1 | 0.06 |
| Nc1nc(/C(=N\OCCF)C(=O)N[C@@H]2C(=O)N3C(C(=O)[O-])=C(Sc4nc5ccccc5[nH]4)CC[C@H]23)cs1.[Na+] | 32 | 2 | < 0.008 | 2 | 16 | 128 | 0.015 | 8 | 1 | 32 | 0.125 | 0.015 |
| C[n+]1ccc2sc(SC3=C(C(=O)[O-])N4C(=O)[C@@H]([N-]C(=O)/C(=N/OCCF)c5csc(N)n5)[C@H]4CC3)nc2c1.[Na+] | 32 | 2 | 0.15 | 2 | 16 | 128 | 0.06 | 8 | 4 | 32 | 0.25 | 0.03 |
| Nc1nc(/C(=N\OCCF)C(=O)N[C@@H]2C(=O)N3C(C(=O)[O-])=C(Sc4cccc[n+]4[O-])CC[C@H]23)cs1.[Na+] | 128 | 2 | 0.15 | 2 | 64 | 128 | 0.015 | 8 | 2 | > 128 | 0.125 | 0.06 |
| Nc1nc(/C(=N\OCCF)C(=O)N[C@@H]2C(=O)N3C(C(=O)[O-])=C(Sc4nc5c(N)ncnc5s4)CC[C@H]23)cs1.[Na+] | 64 | 0.5 | < 0.008 | 0.125 | 16 | 32 | 0.03 | 2 | 1 | > 128 | 0.25 | 0.03 |
| CCOC(=O)c1csc(SC2=C(C(=O)[O-])N3C(=O)[C@@H](NC(=O)/C(=N/OCCF)c4csc(N)n4)[C@H]3CC2)n1.[Na+] | 128 | 2 | < 0.008 | 1 | 16 | 32 | 0.06 | 2 | 4 | > 128 | 0.5 | 0.06 |
| Cc1csc(SC2=C(C(=O)[O-])N3C(=O)[C@@H](NC(=O)/C(=N/OCCF)c4csc(N)n4)[C@H]3CC2)n1.[Na+] | 32 | 0.5 | < 0.008 | 0.5 | 4 | 64 | < 0.008 | 4 | 2 | 64 | 0.25 | < 0.008 |
| Nc1nc(/C(=N\OCCF)C(=O)N[C@@H]2C(=O)N3C(C(=O)[O-])=C(Sc4nc(-c5ccccc5)cs4)CC[C@H]23)cs1.[Na+] | 64 | 0.25 | < 0.008 | 0.125 | 4 | 4 | 0.03 | 0.5 | 1 | 8 | 0.25 | 0.015 |
| Nc1nc(/C(=N\OCCF)C(=O)N[C@@H]2C(=O)N3C(C(=O)[O-])=C(Sc4nc(-c5cccnc5)cs4)CC[C@H]23)cs1.[Na+] | 64 | 0.5 | < 0.008 | 0.25 | 8 | 32 | 0.015 | 2 | 2 | > 128 | 0.25 | 0.03 |

Reference: ChEMBL document CHEMBL1127066, “Discovery and structure-activity relationship of a series of 1-carba-1-dethiacephems exhibiting activity against methicillin-resistant Staphylococcus aureus” (J Med Chem, 1993)
